In US6300350A, “Treatment of emphysema using RARy selective retinoid agonists” (priority 2000, dated 2001):
pEC50, pIC50: −log10 of the molar value.

Columns and labels:
RARγ [1] = target: T1, RARγ (Homo sapiens, UniProt P13631); experiment: Binding, RARγ (ligand binding assay)
T1 sequence (P13631 1-454): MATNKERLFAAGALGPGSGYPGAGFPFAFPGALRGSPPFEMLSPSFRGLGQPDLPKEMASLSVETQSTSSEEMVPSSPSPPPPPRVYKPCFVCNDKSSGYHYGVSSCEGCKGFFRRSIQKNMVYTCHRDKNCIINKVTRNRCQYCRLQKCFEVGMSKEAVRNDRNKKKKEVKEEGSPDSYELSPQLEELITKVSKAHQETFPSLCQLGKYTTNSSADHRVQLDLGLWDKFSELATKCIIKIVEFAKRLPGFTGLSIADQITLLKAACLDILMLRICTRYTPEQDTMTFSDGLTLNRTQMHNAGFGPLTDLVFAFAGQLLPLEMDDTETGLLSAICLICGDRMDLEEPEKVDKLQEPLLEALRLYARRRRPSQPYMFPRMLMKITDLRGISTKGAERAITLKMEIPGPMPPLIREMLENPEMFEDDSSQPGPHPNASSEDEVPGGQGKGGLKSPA
Source text: The RARγ agonist selectivity of a compound can be determined by routine ligand binding assays known to one of skill in the art such as described in C. Apfel et al., Proc. Nat.

[2] = Plasma triglyceride levels in rats; format: in vivo; conditions: plasma, 1 mg/kg/PO daily for two weeks
Procedure: Experimental emphysema was induced in rats as described in Example 2. Three (3) weeks post injury animals were treated with vehicle (Capmul solution) or retinoids prepared in Capmul and dosed orally at 1, 3, and 10 mg/kg body weight. Animals were treated for 14 days prior to termination of study. Lung harvest and blood collection was performed as described in Example 2.
Quantitation of triglycerides contained in rat plasma was performed after using established procedures in a contact clinical laboratory facility. Briefly, plasma triglycerides were converted to dihdroxyacetone and H2 O2, by sequential treatment of plasma with lipase and glycerokinase according directions described by manufacturer of triglycerides/GPO kit (Boehringer Mannheim #1488872). H2 02 was quantitated calorimetrically in a Hitachi 911 Chemistry Analyzer. In rats normal triglyceride levels are 75-175 mg/dl.
Dosage was at 1 mg/kg/PO daily for two weeks. […] Therefore, it appears that RARα selective activity is linked to elevated triglyceride levels.

RARγ [3] = target: T1, RARγ; experiment: Transactivation, RARγ; format: cell-based
Source text: (§1) As used herein, the term "transactivation" refers to the ability of a retinoid to activate the transcription of a gene where the gene transcription is initiated by the binding of a ligand to the particular retinoic acid receptor being tested, i.e., RARα, RARβ, or RARγ. Determining the ability of a compound to transactivate a retinoic acid receptor may be performed by methods known to those of skill in the art. […] Apfel etal., Proc. Nat.

RARα = target: T2, RARα (Homo sapiens, UniProt P10276); experiment: Transactivation, RARα; format: cell-based; conditions: Table II
T2 sequence (P10276 1-462): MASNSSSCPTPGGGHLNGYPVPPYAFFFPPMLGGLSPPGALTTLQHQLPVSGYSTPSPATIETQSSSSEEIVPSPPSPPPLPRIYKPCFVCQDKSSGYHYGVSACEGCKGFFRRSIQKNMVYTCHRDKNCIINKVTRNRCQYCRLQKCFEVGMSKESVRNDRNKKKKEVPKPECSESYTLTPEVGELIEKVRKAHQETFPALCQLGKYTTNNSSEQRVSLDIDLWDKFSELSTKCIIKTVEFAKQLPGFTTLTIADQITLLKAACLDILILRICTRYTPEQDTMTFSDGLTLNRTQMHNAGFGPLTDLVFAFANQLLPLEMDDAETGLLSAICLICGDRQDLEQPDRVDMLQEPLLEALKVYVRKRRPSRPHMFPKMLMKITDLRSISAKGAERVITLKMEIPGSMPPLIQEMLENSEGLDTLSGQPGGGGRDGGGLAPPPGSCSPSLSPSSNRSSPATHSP
Source text: as §1

pIC50 (RARγ [1]; Table II): 6.68
pIC50 (RARγ [1]; Table III): 6.68
[Triglyceride] ([2]; normal rat 75-175 mg/dl): 92 mg/dL
pEC50 (RARγ [3]; Table II): 7.82
pEC50 (RARγ [3]; Table III): 7.82
pEC50 (RARα): 6.00
SMILES: CCCCCCc1cc2c(cc1/C=C/c1ccc(C(=O)O)cc1)C(C)(C)CCC2(C)C [RAR Agonist 3]
triglyceride levels (in words) [2]: do not cause elevation in the triglyceride levels
